Measured values as given in PubChem BioAssay (NCI).
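Five compound concentrations were applied to cells in 96-well plates for 48 hours; endpoints were derived by simple linear interpolation of the resulting dose-response curve. TGI: concentration producing complete growth inhibition.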

Columns and labels:
Assay in all cases: inhibition of tumour cell growth, NCI panel, 48 h
HL-60(TB) leukemia = system: HL-60(TB) leukemia
UO-31 renal = system: UO-31 renal
LOX IMVI melanoma = system: LOX IMVI melanoma
RPMI-8226 leukemia = system: RPMI-8226 leukemia
HOP-18 NSCLC = system: HOP-18 NSCLC
A549 NSCLC = system: A549 NSCLC
KM12 colon = system: KM12 colon
CCRF-CEM leukemia = system: CCRF-CEM leukemia
SN12C renal = system: SN12C renal
786-0 renal = system: 786-0 renal
SF-539 CNS = system: SF-539 CNS
LXFL 529 NSCLC = system: LXFL 529 NSCLC
HOP-62 NSCLC = system: HOP-62 NSCLC
NCI-H460 lung = system: NCI-H460 lung
M19-MEL melanoma = system: M19-MEL melanoma
SR leukemia = system: SR leukemia
SK-MEL-5 melanoma = system: SK-MEL-5 melanoma
NCI-H23 lung = system: NCI-H23 lung
HCT-15 colon = system: HCT-15 colon
OVCAR-3 ovarian = system: OVCAR-3 ovarian
K-562 leukemia = system: K-562 leukemia
SW-620 colon = system: SW-620 colon
MALME-3M melanoma = system: MALME-3M melanoma
SF-295 CNS = system: SF-295 CNS
HCT-116 colon = system: HCT-116 colon
IGROV1 ovarian = system: IGROV1 ovarian
ACHN renal = system: ACHN renal
UACC-62 melanoma = system: UACC-62 melanoma
MOLT-4 leukemia = system: MOLT-4 leukemia
SNB-19 CNS = system: SNB-19 CNS
RXF 393 renal = system: RXF 393 renal
NCI-H226 lung = system: NCI-H226 lung
SNB-75 CNS = system: SNB-75 CNS
COLO 205 colon = system: COLO 205 colon
TK-10 renal = system: TK-10 renal
OVCAR-8 ovarian = system: OVCAR-8 ovarian
EKVX NSCLC = system: EKVX NSCLC
SK-MEL-28 melanoma = system: SK-MEL-28 melanoma
NCI-H522 lung = system: NCI-H522 lung
DMS 114 small cell lung = system: DMS 114 small cell lung
HCC-2998 colon = system: HCC-2998 colon
M14 melanoma = system: M14 melanoma
A498 renal = system: A498 renal
OVCAR-4 ovarian = system: OVCAR-4 ovarian
HT29 colon = system: HT29 colon
SK-OV-3 ovarian = system: SK-OV-3 ovarian
U251 CNS = system: U251 CNS
UACC-257 melanoma = system: UACC-257 melanoma
OVCAR-5 ovarian = system: OVCAR-5 ovarian
CAKI-1 renal = system: CAKI-1 renal
DMS 273 small cell lung = system: DMS 273 small cell lung
KM20L2 colon = system: KM20L2 colon
DLD-1 colon = system: DLD-1 colon
SNB-78 CNS = system: SNB-78 CNS
XF 498 CNS = system: XF 498 CNS
SK-MEL-2 melanoma = system: SK-MEL-2 melanoma

Measured: TGI

O=C1CC[C@@H](S(=O)(=O)c2ccccc2)[C@H](/C=C/c2ccccc2)O1
> 100 µM: HL-60(TB) leukemia | UO-31 renal | LOX IMVI melanoma | RPMI-8226 leukemia | HOP-18 NSCLC | A549 NSCLC | KM12 colon | CCRF-CEM leukemia | SN12C renal | 786-0 renal | SF-539 CNS | LXFL 529 NSCLC | HOP-62 NSCLC | NCI-H460 lung | M19-MEL melanoma | SR leukemia | SK-MEL-5 melanoma | NCI-H23 lung | HCT-15 colon | OVCAR-3 ovarian | K-562 leukemia | SW-620 colon | MALME-3M melanoma | SF-295 CNS | HCT-116 colon | IGROV1 ovarian | ACHN renal | UACC-62 melanoma | MOLT-4 leukemia | SNB-19 CNS | RXF 393 renal | NCI-H226 lung | SNB-75 CNS | COLO 205 colon | TK-10 renal | OVCAR-8 ovarian | EKVX NSCLC | SK-MEL-28 melanoma | NCI-H522 lung | DMS 114 small cell lung | HCC-2998 colon | M14 melanoma | A498 renal | OVCAR-4 ovarian | HT29 colon | SK-OV-3 ovarian | U251 CNS | UACC-257 melanoma | OVCAR-5 ovarian

Cc1[nH]c2ccccc2c1/C=C/c1c(C)[nH]c2ccccc12
> 100 µM: HL-60(TB) leukemia | UO-31 renal | CAKI-1 renal | RPMI-8226 leukemia | A549 NSCLC | KM12 colon | CCRF-CEM leukemia | 786-0 renal | SF-539 CNS | LXFL 529 NSCLC | HOP-62 NSCLC | NCI-H460 lung | M19-MEL melanoma | SK-MEL-5 melanoma | NCI-H23 lung | HCT-15 colon | OVCAR-3 ovarian | K-562 leukemia | SW-620 colon | MALME-3M melanoma | DMS 273 small cell lung | KM20L2 colon | SF-295 CNS | HCT-116 colon | IGROV1 ovarian | ACHN renal | UACC-62 melanoma | DLD-1 colon | MOLT-4 leukemia | SNB-78 CNS | RXF 393 renal | NCI-H226 lung | SNB-75 CNS | TK-10 renal | OVCAR-8 ovarian | EKVX NSCLC | XF 498 CNS | SK-MEL-28 melanoma | SK-MEL-2 melanoma | DMS 114 small cell lung | HCC-2998 colon | M14 melanoma | A498 renal | OVCAR-4 ovarian | HT29 colon | SK-OV-3 ovarian | U251 CNS | UACC-257 melanoma | OVCAR-5 ovarian
